Experimental data: patent publication US8937072B2, “Substituted cyanoaniline compounds, preparation and use thereof” (Sinochem Corporation, priority 2011, dated 2015)
Like-named read-outs stand apart in the source and are kept apart here.

Tests used:
rice blast = assay: microbe, parasite or virus in culture; format: cell-based; details: Pyricularia oryzae; for inhibition at 25 µg/mL: read-out: inhibition rate against rice blast; for inhibition at 0.03 µg/mL: read-out: the inhibition rate against rice blast (%) 0.03 mg/L; for inhibition at 0.1 µg/mL: read-out: the inhibition rate against rice blast (%) 0.1 mg/L; for inhibition at 0.3 µg/mL: read-out: the inhibition rate against rice blast (%) 0.3 mg/L
cucumber gray mold = assay: Activity in vitro (96-well, High Through Put): inhibition rate against cucumber gray mold; format: cell-based; details: for inhibition at 0.3 µg/mL: 0.3 mg/L; for inhibition at 0.9 µg/mL: 0.9 mg/L; for inhibition at 25 µg/mL: dose 25 mg/L
Summary of the method: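 Compound in acetone, methanol or DMF was combined with pathogen suspension under sterile conditions and held in a constant-temperature box. After 24 hours germination or growth was scored by eye against an untreated control to give the inhibition rate.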

cucumber downy mildew = assay: Protectant activity in vivo (whole plant) against cucumber downy mildew; details: Cucumis sativus, 168 h; for pest or weed control at 12.5 µg/mL: 12.5 mg/L; for pest or weed control at 400 µg/mL: dose 400 mg/L
Summary of the method: (§1)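 Compound stock in organic solvent (≤5% v/v) diluted in water with 0.1% Tween-80 and sprayed onto whole host plants. Fungal inoculation 24 h later; humidity chamber then greenhouse as the pathogen requires. Activity rated visually, usually after 7 days.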

corn rust = assay: Protectant activity in vivo (whole plant) against corn rust; details: Zea mays, 168 h; for pest or weed control at 6.25 µg/mL: 6.25 mg/L; for pest or weed control at 25 µg/mL: 25 mg/L; for pest or weed control at 100 µg/mL: 100 mg/L
Summary of the method: as §1

wheat powdery mildew = assay: Protectant activity in vivo (whole plant) against wheat powdery mildew; details: Triticum aestivum, 168 h; for pest or weed control at 400 µg/mL: dose 400 mg/L
Description: The method is as followed: The whole plant is used in this test. The compound is dissolved in a proper solvent to get mother solution. The proper solvent is selected from acetone, methanol, DMF and so on according to their dissolving capability to the sample. The volume rate of solvent and testing solution (v/v) is equal to or less than 5%. The mother solution is diluted with water containing 0.1% tween-80 to get the testing solution whose concentration is designed. The testing solution is sprayed to the host plant by a special plant sprayer. The plant is inoculated with fungus after 24 hours. According to the infecting characteristic of fungus, the plant is stored in a humidity chamber and then transferred into greenhouse after infection is finished. And the other plants are placed in greenhouse directly. The activity of compound is obtained by eyeballing after 7 days in common.

plasmopora viticola = details: at high dose; cited from earlier work
blast of rice = details: at 500 ppm; cited from earlier work
canker of citrus fruit = details: at 500 ppm; cited from earlier work
pear scab = details: in vivo; cited from earlier work
[1] = read-out: the inhibition rate against cucumber gray mold (%)
[2] = 2.8 mg/L, read-out: the inhibition rate against cucumber gray mold (%)
[3] = 8.3 mg/L, read-out: the inhibition rate against cucumber gray mold (%)
[4] = 25 mg/L, read-out: the protectant activity (%) against cucumber downy mildew
[5] = 50 mg/L, read-out: the protectant activity (%) against cucumber downy mildew
[6] = 100 mg/L, read-out: the protectant activity (%) against cucumber downy mildew
[7] = 400 mg/L, read-out: the protectant activity (%) against corn rust
[8] = dose 400 mg/L, read-out: protectant activity against corn rust in vivo
[9] = in vitro, dose 8.3 mg/L, read-out: inhibition rate against cucumber gray mold
[10] = dose 25 mg/L, read-out: protectant activity against cucumber downy mildew in vivo
[11] = dose 50 mg/L, read-out: protectant activity against cucumber downy mildew in vivo
[12] = dose 100 mg/L, read-out: protectant activity against cucumber downy mildew in vivo

SMILES | inhibition at 25 µg/mL (rice blast) [%] | inhibition at 0.03 µg/mL (rice blast) [%] | inhibition at 0.1 µg/mL (rice blast) [%] | inhibition at 0.3 µg/mL (rice blast) [%] | inhibition at 0.3 µg/mL (cucumber gray mold) [%] | inhibition at 0.9 µg/mL (cucumber gray mold; [1]) [%] | inhibition at 2.8 µg/mL (cucumber gray mold; [2]) [%] | inhibition at 8.3 µg/mL (cucumber gray mold; [3]) [%] | inhibition at 25 µg/mL (cucumber gray mold; in vitro) [%] | pest or weed control at 12.5 µg/mL (cucumber downy mildew) [%] | pest or weed control at 25 µg/mL (cucumber downy mildew; [4]) [%] | pest or weed control at 50 µg/mL (cucumber downy mildew; [5]) [%] | pest or weed control at 100 µg/mL (cucumber downy mildew; [6]) [%] | pest or weed control at 400 µg/mL (cucumber downy mildew) [%] | pest or weed control at 6.25 µg/mL (corn rust) [%] | pest or weed control at 25 µg/mL (corn rust) [%] | pest or weed control at 100 µg/mL (corn rust) [%] | pest or weed control at 400 µg/mL (corn rust; [7]) [%] | pest or weed control at 400 µg/mL (corn rust; [8]) [%] | pest or weed control at 400 µg/mL (wheat powdery mildew) [%] | also measured
N#Cc1c(Cl)c(Cl)c(Nc2ccccc2)c(C#N)c1Cl [KC1] | 0 | 0 | 0 | 0 | 0 | 0 | 0 | 0 | 0 | 0 | 0 | 0 | 0 | 0 | 0 | 0 | 0 | 0 | 0 | 0 | activity on relevant diseases such as plasmopora viticola (plasmopora viticola): some activity
N#Cc1c(F)c(F)c(Nc2ccccc2)c(C#N)c1F [KC7] |  | 0 | 0 | 0 | 0 | 0 | 0 | 0 |  | 0 | 0 | 10 | 20 |  |  |  |  |  |  | 0 | inhibition at 8.3 µg/mL (cucumber gray mold; [9]): 0%; pest or weed control at 25 µg/mL (cucumber downy mildew; [10]): 0%; pest or weed control at 50 µg/mL (cucumber downy mildew; [11]): 10%; pest or weed control at 100 µg/mL (cucumber downy mildew; [12]): 20%; bacteriostatic diameter against blast of rice (blast of rice): 22.5 mm; bacteriostatic diameter against canker of citrus fruit (canker of citrus fruit): 13.8 mm; control against pear scab (pear scab): 100%
N#Cc1c(F)c(F)c(Nc2ccc(Cl)cc2)c(C#N)c1F [KC8] |  | 0 | 0 | 0 | 0 | 0 | 0 | 0 |  | 0 | 0 | 0 | 0 | 0 | 0 | 0 | 0 | 0 | 0 | 0 | inhibition at 8.3 µg/mL (cucumber gray mold; [9]): 0%; bacteriostatic diameter against blast of rice (blast of rice): 10.2 mm; bacteriostatic diameter against canker of citrus fruit (canker of citrus fruit): 0 mm; control against pear scab (pear scab): 90%
N#Cc1c(F)c(F)c(Nc2ccc(Cl)c(Cl)c2)c(C#N)c1F [KC12] | 0 | 0 | 0 | 0 | 0 | 0 | 0 | 80 |  | 0 | 0 | 0 | 0 |  | 0 | 0 | 0 | 0 | 0 | 0 | inhibition at 2.8 µg/mL (cucumber gray mold; in vitro, dose 2.8 mg/L, read-out: inhibition rate against cucumber gray mold): 0%; pest or weed control at 100 µg/mL (cucumber downy mildew; [12]): 20%; bacteriostatic diameter against blast of rice (blast of rice): 15.5 mm; bacteriostatic diameter against canker of citrus fruit (canker of citrus fruit): 0 mm
N#Cc1c(Cl)c(Cl)c(Nc2ccccc2)c(Cl)c1C#N [KC14] |  | 0 | 0 | 0 | 0 | 0 | 0 | 0 | 0 | 0 | 0 | 0 | 0 |  | 0 | 0 | 0 | 0 | 0 | 30 | pest or weed control at 100 µg/mL (cucumber downy mildew; [12]): 0%; pest or weed control at 100 µg/mL (wheat powdery mildew; dose 100 mg/L): 0%; activity on relevant diseases such as plasmopora viticola (plasmopora viticola): some activity
N#Cc1c(Cl)c(Cl)c(C#N)c(Nc2ccccc2)c1Cl [KC15] |  | 0 | 0 | 0 | 0 | 0 | 0 | 0 | 0 | 0 | 0 | 10 | 20 |  | 0 | 0 | 0 | 0 | 0 | 0 | pest or weed control at 25 µg/mL (cucumber downy mildew; [10]): 0%; pest or weed control at 50 µg/mL (cucumber downy mildew; [11]): 10%; pest or weed control at 100 µg/mL (cucumber downy mildew; [12]): 20%; activity on relevant diseases such as plasmopora viticola (plasmopora viticola): some activity
N#Cc1c(F)c(Cl)c(Nc2ccc([N+](=O)[O-])cc2)c(C#N)c1F [KC22] | 0 | 0 | 0 | 0 | 0 | 0 | 0 | 0 | 0 | 0 | 0 | 0 | 0 | 0 |  | 0 | 0 | 0 | 0 | 0 | 
N#Cc1c(Cl)c(Cl)c(C#N)c(Cl)c1Cl [STM-1] | 0 | 0 | 0 | 0 | 0 | 0 | 0 | 0 | 0 | 0 | 0 | 0 | 0 | 0 | 0 | 0 | 0 | 0 | 0 | 0 | 
N#Cc1c(Cl)c(Cl)c(Cl)c(Cl)c1C#N [STM-2] | 50 |  |  | 50 | 0 | 0 | 0 | 0 | 0 |  |  |  |  |  |  |  |  | 70 |  | 0 | pest or weed control at 25 µg/mL (cucumber downy mildew; [10]): 10%
